Experimental data as given in US5281710A, “Dynemicin analogs: synthesis, methods of preparation and use” (The Scripps Research Institute, priority 1992, dated 1994).
Read-outs that look alike come from different tables or passages of the source.

How the values were obtained:
[1] = system: cancer cell lines; assay: cells; format: cell-based
Experimental: In addition to the screening already discussed, several of the before-described compounds and chimeras were screened against several or all of a panel of ten to twenty-five cancerous cell lines as target cells and seven "normal" cell preparations. This screening utilized a sulforhodamine B cytotoxidity assay as discussed below.
SULFORHODAMINE B CYTOTOXICITY ASSAY
a. Stock drug solutions were prepared by dissolving drug in the appropriate solvent (determined during chemical characterization studies) and sterile filtering the drug-solvent solution through a sterile 0.2μ filter unit. An aliquot was taken from each filtered drug solution and the O.D. was measured to determine the drug concentration.
f. Incubate (37° C., 5-10 percent CO2 in humidified incubator) plates for a total of 72 hours. Check plates at 24 hour intervals microscopically for signs of cytotoxicity.
IC50 values; i.e., the concentration of Compound required to kill one-half of the treated cells, were then calculated.
All other cells or cell lines were obtained from the American Type Culture Collection (ATCC) (all except CHO cells are human or mouse cancer cell lines as described by the ATC).
Tables 1 and 2 herein below provide average IC50 data from five to all ten of the above cancer cells lines for fused ring enediyne compounds disclosed herein. Those tables provide a generic structure and a description of the R group of that generic structure for each compound. Compound numbers as noted hereinbefore are also provided. Table 3 contains data for two fused-ring enediyne compounds (Compounds 47 and 120) as well as data for six chimers. Table 4 contains cancer cell and noraml cell cytotoxicity data for one select fused ring enediyne, Compound 153 against a number of "normal" cell preparations and tumor cell lines. Table 5 contains cancer cell and normal cell cytotoxicity data for another fused ring enediyne, Compound 250 against a similar panel of cells.

[2] = system: φX174 Form I DNA; assay: φX174 supercoiled DNA cleavage, agarose gel; format: biochemical
Experimental: The ethereal solution of Compound 40 produced by the LiAlH4 reduction of Compound 21 (39 mg, 0.10 mmol) was evaporated in vacuo to dryness and the residue dissolved in THF (4 mL) to give a 25 mM solution of Compound 40, assuming complete conversion of Compound 21. […]
Thus, a vial containing a 50 micromolar per base pair solution […] of the same buffer solution and 2.0 microliters of a 5.0 millimolar ethanol solution of Compound 40.
[…] A 2.0 microliter portion of glycerol loading buffer solution containing bromothymol blue indicator was added to each vial. A 10 microliter aliquot was then drawn from each. Gel electrophoresis analysis of the aliquots was performed using a 1.0 percent agarose gel with ethidium bromide run at 115 volts for 1 hour. DNA cleavage was indicated by the formation of nicked relaxed circular DNA (form II) or linearized DNA (form III), which was detected by visual inspection of the gel under 310 nanometer ultraviolet light using ethidium bromide.

[3] = Average data obtained from 5~10 cell lines, read-out: IC50 (average)
[4] = 5.0 mM, pH 8.5, 36 hours, 37° C.

**Q.** How did the IC50 [1, 3] turn out when `O=C(Oc1ccccc1)N1c2ccccc2[C@@]23O[C@]24CCC[C@@]3(O)C#Cc2ccccc2C#C[C@H]14` (relative stereo) [Compound 74] was run?
**A.** The IC50 was 20 µM.

**Q.** For `O=C(OCCS(=O)(=O)c1ccccc1)N1c2ccccc2C23OC24CCCC3(OCCO)C#C/C=C\C#CC14` (stereo not drawn) [Compound 120], which IC50 [1, 3] is on record?
**A.** The IC50 was 40 µM.

**Q.** Which IC50 [1, 3] does the source give for `O=C(Oc1ccccc1)N1c2ccccc2[C@@]23O[C@]24CCC[C@@]3(O)C#Cc2cc3ccccc3cc2C#C[C@H]14` (relative stereo) [Compound 85] here?
**A.** The IC50 was 20 µM.

**Q.** Which IC50 [1, 3] does the source give for `COC(=O)COC12C#C/C=C\C#CC3N(C(=O)Oc4ccccc4)c4ccccc4C14OC34CCC2` (stereo not drawn) [Compound 24b] here?
**A.** The IC50 was 5 µM.

**Q.** For `O=C(OCC[S+]([O-])c1ccccc1)N1c2ccccc2[C@@]23O[C@]24CCC[C@H]3C#C/C=C\C#C[C@H]14` (relative stereo) [Compound 21b], which IC50 [1, 3] is on record?
**A.** Its IC50 is 32 µM.

**Q.** With `CC(=O)O[C@]12C#C/C=C\C#C[C@@H]3N(C(=O)Oc4ccccc4)c4cc(O)ccc4[C@]14O[C@@]34CCC2` (relative stereo) [Compound 171] as the compound, how does the DNA cleavage ([2]; pH 8.5, 24 or 48 hours, 37° C.) read?
**A.** The DNA cleavage was “strong activity”.

**Q.** `O=C(OCCS(=O)(=O)c1ccccc1)N1c2ccccc2[C@@]23O[C@]24CCC[C@H]3C#Cc2ccccc2C#C[C@H]14` (relative stereo) [Compound 70] was tested. Which IC50 [1, 3] did it give?
**A.** The IC50 was 3.2 µM.

**Q.** What about the “cytotoxicity (qualitative)” value ([1]; cancer cell lines) of the same compound?
**A.** The value was “potent anticancer activity against a variety of cell lines”.

**Q.** And the DNA cleavage ([2]; basic conditions, pH 9.0)?
**A.** The DNA cleavage was “exhibited DNA cleaving properties”.

**Q.** How did the IC50 [1, 3] turn out when `CO[C@]12C#C/C=C\C#C[C@@H]3N(C(=O)Oc4ccccc4)c4ccccc4[C@]14O[C@@]34CCC2` (relative stereo) [Compound 46] was run?
**A.** The IC50 was 63 µM.

**Q.** With `O=C(OCCSc1ccccc1)N1c2ccccc2[C@@]23O[C@]24CCC[C@H]3C#C/C=C\C#C[C@H]14` (relative stereo) [Compound 21a] as the compound, how does the IC50 [1, 3] read?
**A.** Its IC50 is 63 µM.

**Q.** How did the IC50 [1, 3] turn out when `CCNC1COC(OC2C(OCCOC34C#CC=CC#CC5N(C(=O)OCCS(=O)(=O)c6ccccc6)c6ccccc6C36OC56CCC4)OC(C)C(=NOC3CC(O)C(SC(=O)c4c(C)c(I)c(OC5OC(C)C(O)C(OC)C5O)c(OC)c4OC)C(C)O3)C2O)CC1OC` (stereo not drawn) [Compound 126b] was run?
**A.** Its IC50 is 8.7 µM.

**Q.** For `COC12C#C/C=C\C#CC3N(C(=O)Oc4ccccc4)c4cc(O)ccc4C14OC34CCC2` (stereo not drawn) [Compound 55], which DNA cleavage ([2]; 5 mM, pH 8.0, 24 hours) is on record?
**A.** Its DNA cleavage is “diminished activity against DNA”.

**Q.** For `COc1ccc2c(c1)[C@@]13O[C@]14CCC[C@H]3C#C/C=C\C#C[C@@H]4N2C(=O)Oc1ccccc1` (relative stereo) [Compound 41a], which IC50 [1, 3] is on record?
**A.** Its IC50 is 20 µM.

**Q.** Which DNA cleavage [2, 4] does the source give for `CC(=O)OC12C#C/C=C\C#CC3N(C(=O)Oc4ccccc4)c4cc(O)ccc4C14OC34CCC2` (stereo not drawn) [Compound 201] here?
**A.** The DNA cleavage was “significant DNA cleaving action”.

**Q.** With `O=C(OCCSc1ccccc1)N1c2ccccc2[C@@]23O[C@]24CCC[C@H]3C#Cc2ccccc2C#C[C@H]14` (relative stereo) [Compound 77] as the compound, how does the IC50 [1, 3] read?
**A.** The IC50 was 36 µM.

**Q.** With `O=C(Oc1ccccc1)N1c2ccccc2C23OC24CCCC3C#Cc2ccccc2C#CC14` (stereo not drawn) [Compound 76] as the compound, how does the IC50 [1, 3] read?
**A.** The IC50 was 7.9 µM.

**Q.** Which IC50 ([1]; cancer cells, control drugs, read-out: Range of Average IC50 Values, Cancer Cells) does the source give for `COc1cccc2c1C(=O)c1c(O)c3c(c(O)c1C2=O)C[C@@](O)(C(=O)CO)C[C@@H]3O[C@H]1C[C@H](N)[C@H](O)[C@H](C)O1` [Doxorubicin, reference compound] here?
**A.** Its IC50 is 0.00016 to 0.098 µM.

**Q.** Which IC50 [1, 3] does the source give for `O=C(OCCSc1ccccc1)N1c2ccccc2[C@@]23O[C@]24CCC[C@H]3C#Cc2cc3ccccc3cc2C#C[C@H]14` (relative stereo) [Compound 88] here?
**A.** The IC50 was 50 µM.

**Q.** `CC(=O)Oc1ccc2c(c1)N(C(=O)Oc1ccccc1)C1C#C/C=C\C#CC3(OC(C)=O)CCCC14OC234` (stereo not drawn) [Compound 202] was tested. Which DNA cleavage [2, 4] did it give?
**A.** Its DNA cleavage is “inert”.

**Q.** Which IC50 [1, 3] does the source give for `CCNC1COC(OC2C(OCCOC34C#CC=CC#CC5N(C(=O)OCCS(=O)(=O)c6ccccc6)c6ccccc6C36OC56CCC4)OC(C)C(=NOC3CC(O)C(SC(=O)c4c(C)c(I)c(OC5OC(C)C(O)C(OC)C5O)c(OC)c4OC)C(C)O3)C2O)CC1OC` (stereo not drawn) [Compound 126a] here?
**A.** Its IC50 is 44 µM.

**Q.** `O=C(Oc1ccccc1)N1c2ccccc2C23OC24CCCC3C#Cc2cc3ccccc3cc2C#CC14` (stereo not drawn) [Compound 87] was tested. Which IC50 [1, 3] did it give?
**A.** The IC50 was 3.2 µM.

**Q.** With `C=CS(=O)(=O)c1ccccc1` [phenyl vinyl sulfone, reference compound] as the compound, how does the DNA cleavage ([2]; 1.0 mM) read?
**A.** Its DNA cleavage is “no DNA cleavage”.

**Q.** What about the DNA cleavage ([2]; 5.0 mM, pH 8.5 and 9.0, 48 hours, 37° C.) of the same compound?
**A.** Its DNA cleavage is “Form II DNA”.
